Values of other authors, collected in patent US20240158516A1, “METHODS FOR THE TREATMENT OF THYROID EYE DISEASE” (Horizon Therapeutics Ireland DAC, priority 2021, published 2024).
Like-named read-outs stand apart in the source and are kept apart here.

Assays:
[1] = cited from earlier work
patients with GO (TED) = details: vs. 0.15 mm in the placebo group; cited from earlier work
[2] = cited from earlier work; remark: listed apart in the source
IGF-IR [3] = biological target: T1, IGF-IR (Homo sapiens, UniProt P08069); details: cited from earlier work
IGF-IR [4] = biological target: T1, IGF-IR; details: cited from earlier work; remark: listed apart in the source
IGF-1 R = IGF-1 R (Homo sapiens, UniProt P08069); details: cited from earlier work
[5] = test system: patients with moderate-to-severe active TED; details: cited from earlier work
tumor = details: in vivo; cited from earlier work

Sequence of IGF-1 R (P08069 31-1367): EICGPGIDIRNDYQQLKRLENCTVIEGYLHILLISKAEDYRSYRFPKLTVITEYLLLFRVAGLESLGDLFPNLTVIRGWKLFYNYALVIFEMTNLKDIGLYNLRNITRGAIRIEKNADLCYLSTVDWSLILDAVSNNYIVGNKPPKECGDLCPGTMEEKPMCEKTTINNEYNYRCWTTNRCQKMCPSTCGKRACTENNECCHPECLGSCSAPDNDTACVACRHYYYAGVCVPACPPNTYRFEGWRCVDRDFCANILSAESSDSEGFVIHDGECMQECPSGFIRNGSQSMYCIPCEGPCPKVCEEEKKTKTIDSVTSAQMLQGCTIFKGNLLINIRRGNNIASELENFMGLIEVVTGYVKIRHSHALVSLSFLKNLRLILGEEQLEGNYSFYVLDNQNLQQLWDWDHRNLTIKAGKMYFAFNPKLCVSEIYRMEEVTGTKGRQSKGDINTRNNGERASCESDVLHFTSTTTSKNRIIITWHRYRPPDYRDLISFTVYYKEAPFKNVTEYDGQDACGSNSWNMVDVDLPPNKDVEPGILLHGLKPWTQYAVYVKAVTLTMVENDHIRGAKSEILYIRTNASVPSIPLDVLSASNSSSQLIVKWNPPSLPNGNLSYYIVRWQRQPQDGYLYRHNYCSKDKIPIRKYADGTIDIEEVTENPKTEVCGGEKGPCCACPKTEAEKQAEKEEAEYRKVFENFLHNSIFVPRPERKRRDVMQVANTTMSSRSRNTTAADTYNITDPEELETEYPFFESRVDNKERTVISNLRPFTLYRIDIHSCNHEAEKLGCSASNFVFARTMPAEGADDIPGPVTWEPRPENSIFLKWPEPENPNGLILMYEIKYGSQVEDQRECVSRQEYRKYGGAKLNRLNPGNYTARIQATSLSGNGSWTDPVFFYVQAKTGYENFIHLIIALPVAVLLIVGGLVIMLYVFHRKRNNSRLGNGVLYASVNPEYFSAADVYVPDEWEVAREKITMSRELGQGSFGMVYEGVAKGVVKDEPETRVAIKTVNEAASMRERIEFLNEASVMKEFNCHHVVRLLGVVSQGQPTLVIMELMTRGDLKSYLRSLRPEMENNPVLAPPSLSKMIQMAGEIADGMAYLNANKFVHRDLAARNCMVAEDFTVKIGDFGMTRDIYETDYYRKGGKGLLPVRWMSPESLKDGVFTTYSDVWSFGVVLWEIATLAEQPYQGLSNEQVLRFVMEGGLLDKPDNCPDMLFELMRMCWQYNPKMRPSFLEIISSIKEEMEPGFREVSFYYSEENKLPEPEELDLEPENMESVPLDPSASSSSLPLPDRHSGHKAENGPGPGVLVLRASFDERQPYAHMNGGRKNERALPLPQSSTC
T1 sequence (P08069 31-1367): as above

COCCN1CCN(CCn2ccc(Nc3ncc4c(n3)[C@@H](C)Cc3nn(C)c(-c5ccccc5)c3-4)n2)CC1 [BI885578]
in vivo half-life ([1]; as a result of rapid metabolic clearance): short
intestinal absorption ([1]; in vivo): rapid
metabolic clearance ([1]; in vivo): rapid

teprotumumab: fully human IGF-IR-inhibitory monoclonal antibody approved for TED; VH SEQ ID NO:90, VL SEQ ID NO:91
exophthalmos decreased by an average of (patients with GO (TED)): 2.46 mm
T1/2 ([2]; IV): IV; 8 days

C[C@]1(O)C[C@@H](c2nc(-c3ccc4ccc(-c5ccccc5)nc4c3)c3c(N)nccn32)C1 [Linsitinib]
T1/2 ([2]; oral): oral; 2-4 hrs

Dalotuzumab: IGF-1R inhibitor antibody; HC SEQ ID NO:7, LC SEQ ID NO:8
T1/2 ([2]; in vivo, iv): IV;5 days

Nc1ncnc2c1c(-c1ccc3[nH]c(Cc4ccccc4Cl)nc3c1)nn2[C@H]1CC[C@H](N2CCOCC2)CC1 [Example A-928605]
inhibition of IGF-IR on the purified enzyme (IGF-IR [3]): potent inhibitor
inhibition of intracellular IGF-IR phosphorylation (IGF-IR [4]): potent inhibitor

CN1CCC(Nc2cc(Cl)cc3c(S(=O)(=O)N4CCO[C@H](COc5ccccc5)C4)c(C(N)=O)[nH]c23)CC1 [PL-225B]
inhibition of IGF-1 R (IGF-1 R): selectively inhibits IGF-1 R
T1/2 ([2]; oral): Oral; 21d

COc1cc(N2CCC(N)CC2)ccc1Nc1ncc(Cl)c(-c2c[nH]c3ccccc23)n1 [AZD3463]
inhibition of IGF-1 R (IGF-1 R): potent ALK/IGF-1 R inhibitor

rituximab: a CD20+ B cell-depleting agent
reduction in proptosis compared with the ivGC results ([5]; compared with 0.6 mm mean reduction under ivGCs): not different
effects of rituximab versus placebo ([5]; first trial, 2015 monocenter RCT): negative
effects of rituximab versus ivGCs ([5]; second trial, 2015 monocenter RCT): positive

N#CCc1cnc(-c2ccc3ccccc3n2)n1-c1ccnc(NC2CCCNC2)n1 (stereo not shown) [BI893923]
anti-tumor efficacy (tumor): anti-tumor efficacy
tolerability (tumor): good

Cixutumumab: IGF-1R inhibitor antibody; HC SEQ ID NO:55, LC SEQ ID NO:56
T1/2 ([2]; IV): IV; 5 days

B1: Figitumumab: IGF-1R inhibitor antibody; HC SEQ ID NO:39, LC SEQ ID NO:40 (antibody)
heavy: EVQLLESGGGLVQPGGSLRLSCTASGFTFSSYAMNWVRQAPGKGLEWVSAISGSGGTTFYADSVKGRFTISRDNSRTTLYLQMNSLRAEDTAVYYCAKDLGWSDSYYYYYGMDVWGQGTTVTVSSASTKGPSVFPLAPCSRSTSESTAALGCLVKDYFPEPVTVSWNSGALTSGVHTFPAVLQSSGLYSLSSVVTVPSSNFGTQTYTCNVDHKPSNTKVDKTVERKCCVECPPCPAPPVAGPSVFLFPPKPKDTLMISRTPEVTCVVVDVSHEDPEVQFNWYVDGVEVHNAKTKPREEQFNSTFRVVSVLTVVHQDWLNGKEYKCKVSNKGLPAPIEKTISKTKGQPREPQVYTLPPSREEMTKNQVSLTCLVKGFYPSDIAVEWESNGQPENNYKTTPPMLDSDGSFFLYSKLTVDKSRWQQGNVFSCSVMHEALHNHYTQKSLSLSPGK
light: DIQMTQFPSSLSASVGDRVTITCRASQGIRNDLGWYQQKPGKAPKRLIYAASRLHRGVPSRFSGSGSGTEFTLTISSLQPEDFATYYCLQHNSYPCSFGQGTKLEIKRTVAAPSVFIFPPSDEQLKSGTASVVCLLNNFYPREAKVQWKVDNALQSGNSQESVTEQDSKDSTYSLSSTLTLSKADYEKHKVYACEVTHQGLSSPVTKSFNRGEC
modifications: Figitumumab Heavy Chain (HC); Figitumumab Light Chain (LC)
T1/2 ([2]; IV): IV; 20 days
